The text below walks through data of patent publication US7825114B2, “Substituted aminopyrazolopyridines and salts thereof, pharmaceutical compositions comprising same, methods of preparing same and uses of same” (Bayer Schering Pharma AG, priority 2006, dated 2010).

The target in experiment [1] is T1, Tie2 (Homo sapiens, UniProt Q02763). Put plainly: Tie2 ELISA assay (assay 1): cellular Tie2 autophosphorylation. It counts as cell-based. More on the design: expressed in transfected cells; host or cells: CHO (DHFR-deficient), stably transfected. The following applies: CHO cells stably transfected with Tie2, stimulated by angiopoietin-2; Tie2 autophosphorylation by sandwich-ELISA; read-out: Tie 2 activity (assay 1). On the procedure:
Assay 1: Tie2 ELISA Assay
Cellular activity of compounds of the present invention as inhibitors of Tie2 kinase activity was measured employing a Tie2 ELISA assay as described in the following paragraphs. Herein CHO cell-cultures, which are stably transfected by known techniques with Tie2 using DHFR deficiency as selection marker, are stimulated by angiopoietin-2. The specific autophosphorylation of Tie2 receptors is quantified with a sandwich-ELISA using anti-Tie2 antibodies for catch and anti-phosphotyrosine antibodies coupled to HRP for detection. […]
Target sequence in this assay (Q02763 23-1124): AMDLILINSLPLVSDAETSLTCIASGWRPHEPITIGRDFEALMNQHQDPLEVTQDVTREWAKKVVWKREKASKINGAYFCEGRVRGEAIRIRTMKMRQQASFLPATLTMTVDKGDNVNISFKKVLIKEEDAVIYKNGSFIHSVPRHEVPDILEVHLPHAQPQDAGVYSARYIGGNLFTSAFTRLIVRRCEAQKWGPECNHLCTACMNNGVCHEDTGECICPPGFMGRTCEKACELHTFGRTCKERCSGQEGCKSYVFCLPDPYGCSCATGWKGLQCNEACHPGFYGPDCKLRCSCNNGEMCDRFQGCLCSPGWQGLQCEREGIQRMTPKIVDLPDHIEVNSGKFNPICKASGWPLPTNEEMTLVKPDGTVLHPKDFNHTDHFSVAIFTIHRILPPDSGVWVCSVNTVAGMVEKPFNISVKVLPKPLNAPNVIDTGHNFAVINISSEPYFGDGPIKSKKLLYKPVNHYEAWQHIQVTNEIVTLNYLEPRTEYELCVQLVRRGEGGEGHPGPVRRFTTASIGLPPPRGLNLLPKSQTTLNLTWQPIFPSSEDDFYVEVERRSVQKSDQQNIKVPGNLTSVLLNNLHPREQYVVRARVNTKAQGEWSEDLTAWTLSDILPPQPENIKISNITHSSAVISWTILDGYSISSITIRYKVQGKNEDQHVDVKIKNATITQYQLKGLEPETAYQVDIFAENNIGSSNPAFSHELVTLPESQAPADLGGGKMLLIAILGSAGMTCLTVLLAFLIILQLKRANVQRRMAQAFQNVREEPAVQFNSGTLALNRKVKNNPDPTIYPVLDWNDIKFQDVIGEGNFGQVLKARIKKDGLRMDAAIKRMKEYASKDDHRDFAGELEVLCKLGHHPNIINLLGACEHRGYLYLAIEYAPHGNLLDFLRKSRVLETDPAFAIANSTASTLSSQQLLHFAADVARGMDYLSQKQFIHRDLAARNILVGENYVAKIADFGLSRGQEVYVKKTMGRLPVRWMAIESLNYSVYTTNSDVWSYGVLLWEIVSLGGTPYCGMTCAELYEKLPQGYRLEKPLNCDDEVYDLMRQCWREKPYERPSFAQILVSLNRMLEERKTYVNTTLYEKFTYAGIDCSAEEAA

In experiment [2] the target is T1, Tie2. Put plainly: Tie-2-Kinase HTRF-Assay without kinase preactivation (assay 2). The format is biochemical. More on the design: A recombinant fusion protein of GST and the intracellular domains of Tie-2; GST; made in house; host or cells: insect cells (Hi-5). The following applies: GST-Tie-2 intracellular domains, no preactivation, 10 μM ATP. From the text:
Assay 2: Tie-2-Kinase HTRF-Assay without Kinase Preactivation
Tie2-inhibitory activity of compounds of the present invention was quantified employing two Tie2 HTRF assay as described in the following paragraphs.
A recombinant fusion protein of GST and the intracellular domains of Tie-2, expressed in insect cells (Hi-5) and purified by Glutathion-Sepharose affinity chromatography was used as kinase. Alternatively, commercially available GST-Tie2-fusion protein (Upstate Biotechnology, Dundee, Scotland) can be used As substrate for the kinase reaction the biotinylated peptide biotin-Ahx-[…] (C-terminus in amid form) was used which can be purchased e.g. from the company Biosynthan GmbH (Berlin-Buch, Germany). Detection of phosphorylated product is achieved specifically by a trimeric detection complex consisting of the phosphorylated substrate, streptavidin-XLent (SA-XLent) which binds to biotin, and Europium Cryptate-labeled anti-phosphotyrosine antibody PT66 which binds to phosphorylated tyrosine.
The reaction was stopped by the addition of 5 μl of an aqueous buffer (25 mM Hepes/NaOH pH 7.5, 0.28% (w/v) bovine serum albumin) containing EDTA (90 mM) and the HTRF (Homogeneous Time Resolved Fluorescence) detection reagents streptavidine-XLent (0.2 μM, from Cis Biointernational, Marcoule, France) and PT66-Eu-Chelate (0.3 ng/μl; a europium-chelate labelled anti-phospho-tyrosine antibody from Perkin Elmer).
(§1) The resulting mixture was incubated 1 h at 22° C. to allow the binding of the biotinylated phosphorylated peptide to the streptavidine-XLent and the PT66-Eu-Chelate. Subsequently the amount of phosphorylated substrate peptide was evaluated by measurement of the resonance energy transfer from the PT66-Eu-Chelate to the streptavidine-XLent. Therefore, the fluorescence emissions at 620 nm and 665 nm after excitation at 350 nm was measured in a HTRF reader, e.g. a Rubystar (BMG Labtechnologies, Offenburg, Germany) or a Viewlux (Perkin-Elmer). The ratio of the emissions at 665 nm and at […] was taken as the measure for the amount of phosphorylated substrate peptide.
Target sequence in this assay (Q02763 770-1124 limits assumed): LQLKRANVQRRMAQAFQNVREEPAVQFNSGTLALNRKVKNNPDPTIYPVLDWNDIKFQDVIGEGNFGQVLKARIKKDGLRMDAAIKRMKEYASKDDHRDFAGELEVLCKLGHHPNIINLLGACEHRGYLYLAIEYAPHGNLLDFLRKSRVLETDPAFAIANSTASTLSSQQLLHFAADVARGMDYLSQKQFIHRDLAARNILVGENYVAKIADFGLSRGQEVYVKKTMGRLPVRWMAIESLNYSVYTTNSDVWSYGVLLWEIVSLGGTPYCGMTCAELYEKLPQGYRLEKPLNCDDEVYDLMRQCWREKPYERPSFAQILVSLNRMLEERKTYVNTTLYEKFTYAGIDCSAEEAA

A further experiment deals with T2, human c-kit (Homo sapiens, UniProt P10721).
T2 construct: GST-tagged recombinant kinase domain of the human c-kit; GST; host or cells: SF-9 insect cells
Put plainly: cKIT-Kinase HTRF-Assay (assay 4). The format is biochemical. The following applies: for IC50: GST-tagged kinase domain of human c-kit, 10 μM ATP; for Selectivity vs. cKit: IC50 assay 4/IC50 assay 2. On the procedure: Assay 4: cKIT-Kinase HTRF-Assay
c-Kit-inhibitory activity of compounds of the present invention was quantified employing the c-kit HTRF assay as described in the following paragraphs. GST-tagged recombinant kinase domain of the human c-kit expressed in SF-9 cells was used as kinase. As substrate for the kinase reaction biotinylated poly-(Glu,Tyr) (Cis biointernational, France) was used.
c-Kit was incubated for 30 min at 22° C. in the presence of different concentrations of test compounds in 5 μl assay buffer [50 mM Hepes/NaOH pH 7.0, 1 mM MgCl2, 5 mM MnCl2, 1.0 mM dithiothreitol, 0.1 mM sodium ortho-vanadate, 10 μM adenosine-tri-phosphate (ATP), 1.3 μg/ml substrate, 0.001% (v/v) Nonidet-P40 (Sigma), 1% (v/v) dimethylsulfoxide]. The concentration of c-kit was adjusted depending of the activity of the enzyme lot and was chosen appropriate to have the assay in the linear range. The reaction was stopped by the addition of 5 μl of a solution of HTRF detection reagents (0.1 μM streptavidine-XLent and 1 nM PT66-Eu-Chelate, an europium-chelate labelled anti-phospho-tyrosine antibody from Perkin Elmer) in an aqueous EDTA-solution (80 mM EDTA, 0.2% (w/v) bovine serum albumin in 50 mM HEPES/NaOH pH 7.0).
as §1, with “substrate” for “substrate peptide”, “substrate.” for “substrate peptide.”

T2 sequence (P10721 589-937 limits assumed): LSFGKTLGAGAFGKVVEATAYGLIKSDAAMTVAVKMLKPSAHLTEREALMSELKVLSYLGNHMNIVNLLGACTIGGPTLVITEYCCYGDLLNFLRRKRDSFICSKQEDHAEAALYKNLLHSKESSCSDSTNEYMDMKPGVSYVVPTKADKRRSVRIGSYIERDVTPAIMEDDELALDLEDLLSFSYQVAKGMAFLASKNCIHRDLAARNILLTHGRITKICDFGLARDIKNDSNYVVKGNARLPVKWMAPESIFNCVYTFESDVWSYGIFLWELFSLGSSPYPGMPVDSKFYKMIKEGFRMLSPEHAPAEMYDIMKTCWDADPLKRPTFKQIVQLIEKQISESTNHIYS

As for `Cn1nc(N)c2c(-c3ccc(NC(=O)Nc4cccc(C(F)(F)F)c4)cc3)cc(C3(C(=O)NCCO)CC3)nc21` [Example 1.14, 1-(3-Amino-1-methyl-4-{4-[3-(3-trifluoromethyl-phenyl)-ureido]-phenyl}-1H-pyrazolo[3,4-b]pyridin-6-yl)-cyclopropanecarboxylic acid (2-hydroxy-ethyl)-amide], the IC50 on Tie2 [1] is 100 to 1000 nM; at Tie2 [2] it was not above 100 nM; at human c-kit, 100 to 1000 nM. The “Selectivity vs. cKit” value on human c-kit came out at 11.
On to `CCNC(=O)C1(c2cc(-c3ccc(NC(=O)Nc4cccc(C(F)(F)F)c4)cc3)c3c(N)nn(C)c3n2)CC1` [Example 1.5, 1-(3-Amino-1-methyl-4-{4-[3-(3-trifluoromethyl-phenyl)-ureido]-phenyl}-1H-pyrazolo[3,4-b]pyridin-6-yl)-cyclopropanecarboxylic acid ethylamide], for which the values for the IC50 on Tie2 [1], on Tie2 [2] and against human c-kit were 100 to 1000 nM, not above 100 nM and 1000 to 10000 nM, respectively. Further, the “Selectivity vs. cKit” value at human c-kit is listed as more than 100.
For `Cn1nc(N)c2c(-c3ccc(NC(=O)Nc4cccc(C(F)(F)F)c4)cc3)cc(C3(C(=O)NC4CC4)CC3)nc21` [Example 1.12, 1-(3-Amino-1-methyl-4-{4-[3-(3-trifluoromethyl-phenyl)-ureido]-phenyl}-1H-pyrazolo[3,4-b]pyridin-6-yl)-cyclopropanecarboxylic acid cyclopropylamide], the IC50 is not above 100 nM at Tie2 [1], not above 100 nM on Tie2 [2] and 1000 to 10000 nM against human c-kit. The “Selectivity vs. cKit” value on human c-kit is recorded as more than 100.
Turning to `CNC(=O)C1(c2cc(-c3ccc(NC(=O)Nc4cccc(C(F)(F)F)c4)cc3)c3c(N)nn(C)c3n2)CC1` [Example 1.4, 1-(3-Amino-1-methyl-4-{4-[3-(3-trifluoromethyl-phenyl)-ureido]-phenyl}-1H-pyrazolo[3,4-b]pyridin-6-yl)-cyclopropanecarboxylic acid methylamide], the IC50 at Tie2 [1] was 100 to 1000 nM; at Tie2 [2], not above 100 nM; at human c-kit it was 100 to 1000 nM. Moreover, the “Selectivity vs. cKit” value on human c-kit was 9.
Consider `CCOC(=O)C1(c2cc(-c3ccc(NC(=O)Nc4cccc(C(F)(F)F)c4)cc3)c3c(N)nn(C)c3n2)CC1` [Example 1.2, 1-(3-Amino-1-methyl-4-{4-[3-(3-trifluoromethyl-phenyl)-ureido]-phenyl}-1H-pyrazolo[3,4-b]pyridin-6-yl)-cyclopropanecarboxylic acid ethyl ester], for which the figures for the IC50 on Tie2 [1], on Tie2 [2] and against human c-kit were not above 100 nM, not above 100 nM and 1000 to 10000 nM, respectively. Further, the “Selectivity vs. cKit” value at human c-kit was more than 30.
`CCOC(=O)C1(c2cc(-c3ccc(NC(=O)Nc4ccccc4)cc3)c3c(N)nn(C)c3n2)CC1` [Example 1.1, 1-{3-Amino-1-methyl-4-[4-(3-phenyl-ureido)-phenyl]-1H-pyra-zolo[3,4-b]pyridin-6-yl}-cyclopropanecarboxylic acid ethyl ester]: the IC50 on Tie2 [1] is 100 to 1000 nM; on Tie2 [2], 100 to 1000 nM; against human c-kit, 1000 to 10000 nM. Besides, at human c-kit, the “Selectivity vs. cKit” value is recorded as 4.
With `Cn1nc(N)c2c(-c3ccc(NC(=O)Nc4cccc(C(F)(F)F)c4)cc3)cc(C3(C(=O)Nc4ccccc4)CC3)nc21` [Example 1.7, 1-(3-Amino-1-methyl-4-{4-[3-(3-trifluoromethyl-phenyl)-ureido]-phenyl}-1H-pyrazolo[3,4-b]pyridin-6-yl)-cyclopropanecarboxylic acid phenylamide], the IC50 at Tie2 [1] is 100 to 1000 nM; at Tie2 [2], 100 to 1000 nM; on human c-kit it was 1000 to 10000 nM. The “Selectivity vs. cKit” value on human c-kit stood at 7.
Regarding `Cn1nc(N)c2c(-c3ccc(NC(=O)Nc4cccc(C(F)(F)F)c4)cc3)cc(C3(C(N)=O)CC3)nc21` [Example 2.1, 1-(3-Amino-1-methyl-4-{4-[3-(3-trifluoromethyl-phenyl)-ureido]-phenyl}-1H-pyrazolo[3,4-b]pyridin-6-yl)-cyclopropanecarboxylic acid amide], the results for the IC50 at Tie2 [1], on Tie2 [2] and at human c-kit were not above 100 nM, not above 100 nM and 100 to 1000 nM, respectively. Further, the “Selectivity vs. cKit” value at human c-kit came out at 6.
On to `COC(=O)C[C@@H]1C[C@H](c2cc(-c3ccc(NC(=O)Nc4cccc(C(F)(F)F)c4)cc3)c3c(N)nn(C)c3n2)C1(C)C` [Example 8.2, [3-(3-Amino-1-methyl-4-{4-[3-(3-trifluoromethyl-phenyl)-ureido]-phenyl}-1H-pyrazolo[3,4-b]pyridin-6-yl)-2,2-dimethyl-cyclobutyl]-acetic acid methyl ester], for which the IC50 on Tie2 [1] was not above 100 nM; on Tie2 [2], not above 100 nM; at human c-kit, 1000 to 10000 nM. Moreover, the “Selectivity vs. cKit” value on human c-kit was 30.
Regarding `Cc1ccc(F)c(NC(=O)Nc2ccc(-c3ccnc4c3c(N)nn4C)cc2)c1` [PA5, 1-[4-(3-Amino-1-methyl-1H-pyrazolo[3,4-b]pyridin-4-yl)-phenyl]-3-(2-fluoro-5-methyl-phenyl)-urea, reference compound], the IC50 at Tie2 [1] was not above 100 nM; on Tie2 [2], 100 to 1000 nM; against human c-kit, not above 100 nM. For the same molecule, the “Selectivity vs. cKit” value at human c-kit turned out to be 0.5.
With `CC(C)NC(=O)C1(c2cc(-c3ccc(NC(=O)Nc4cccc(C(F)(F)F)c4)cc3)c3c(N)nn(C)c3n2)CC1` [Example 1.6, 1-(3-Amino-1-methyl-4-{4-[3-(3-trifluoromethyl-phenyl)-ureido]-phenyl}-1H-pyrazolo[3,4-b]pyridin-6-yl)-cyclopropanecarboxylic acid isopropyl-amide], the IC50 is not above 100 nM at Tie2 [1], not above 100 nM at Tie2 [2] and 1000 to 10000 nM on human c-kit. Further, the “Selectivity vs. cKit” value at human c-kit is more than 100.
Turning to `CN(C)C(=O)C[C@@H]1C[C@H](c2cc(-c3ccc(NC(=O)Nc4cccc(C(F)(F)F)c4)cc3)c3c(N)nn(C)c3n2)C1(C)C` [Example 8.4, 2-[3-(3-Amino-1-methyl-4-{4-[3-(3-trifluoromethyl-phenyl)-ureido]-phenyl}-1H-pyrazolo[3,4-b]pyridin-6-yl)-2,2-dimethyl-cyclobutyl]-N,N-dimethyl-acetamide], the IC50 at Tie2 [2] was not above 100 nM. Further, at human c-kit, the IC50 lay in the range of 1000 to 10000 nM and the “Selectivity vs. cKit” value turned out to be 19.
